Experimental data: US20250144067A1, “PERSONALIZED STARVATION THERAPY FOR CANCER” (Faeth Therapeutics, Inc., priority 2021, published 2025)
Structures can show the parent of a compound that is named as a salt.

Assays:
[1] = system: NCI-H292 lung cancer cells; assay: FDA drug screening, complete media vs cholesterol-free media with simvastatin (TABLE 2); assay type: cell-based, human; settings: for Cholesterol-free media + simvastatin (0.04 μM) / Complete Media: NCI-H292 cells
[2] = system: NCI-H292 lung cancer cells; assay: FDA drug screening, complete media vs cholesterol-free media without statin (TABLE 1); assay type: cell-based, human
[3] = FDA drug library screen, cholesterol-free media with simvastatin 0.04 μM
[4] = FDA drug library screen, complete media
[5] = complete media minus cholesterol-free media + simvastatin, >0 enhanced anti-cancer activity, about 0 neutral, <0 antagonist
[6] = Complete minus Cholesterol-free, >0 enhanced anti-cancer activity, about 0 neutral, <0 antagonist
[7] = NCI-H292 cells, cholesterol-free media without statin
[8] = complete media vs cholesterol-free media + simvastatin (0.04 μM), >0 enhanced anti-cancer activity, about 0 neutral, <0 antagonist
[9] = Complete minus Cholesterol-free, greater than 0 enhanced anti-cancer activity, about 0 neutral, below 0 antagonists
[10] = NCI-H292 cells in cholesterol-free media without statin
[11] = NCI-H292 cells in complete media
[12] = FDA library drug in complete media
[13] = NCI-H292 cells, complete media, FDA drug library screen
[14] = complete vs cholesterol-free media, >0 enhanced anti-cancer activity, about 0 neutral, <0 antagonist
[15] = FDA library drug in cholesterol-free media with simvastatin 0.04 μM
[16] = complete vs cholesterol-free media, greater than 0 enhanced anti-cancer activity, about 0 neutral, below 0 antagonists
[17] = complete media vs cholesterol-free media + simvastatin (0.04 μM), […]
[18] = NCI-H292 cells, cholesterol-free media without statin, FDA drug library screen
[19] = cholesterol-free media with simvastatin 0.04 μM, FDA drug library screen (TABLE 2)
[20] = complete media, FDA drug library screen (TABLE 2)
[21] = complete media minus cholesterol-free media + simvastatin (0.04 μM), >0 enhanced anti-cancer activity, about 0 neutral, <0 antagonist
[22] = drug in cholesterol-free media with simvastatin 0.04 μM
[23] = cholesterol-free media with simvastatin 0.04 μM, cell growth value in FDA drug screen
[24] = complete media, cell growth value in FDA drug screen
[25] = Complete minus Cholesterol-free, greater than 0 enhanced anti-cancer activity, about 0 neutral, below 0 antagonist
[26] = NCI-H292 cells, FDA drug library screen, cholesterol-free media without statin
[27] = NCI-H292 cells, FDA drug library screen, complete media
[28] = complete media minus cholesterol-free media + simvastatin (0.04 μM), […]
[29] = Complete minus Cholesterol-free, […]

CC(C)(CCCCCC(O)CCCCCC(C)(C)C(=O)O)C(=O)O [Bempedoic acid]
Cholesterol-free media + simvastatin (0.04 μM) [1, 3]: 1.143 | Complete Media [1, 4]: 1.281 | Difference [1, 5]: 0.14 | Difference [2, 6]: −0.25 | Cholesterol-free [2, 7]: 1.343 | Complete ([2]; NCI-H292 cells, complete media): 1.094

CCCC(=O)Nc1ccc(OCC(O)CNC(C)C)c(C(C)=O)c1 (stereo not shown) [Acebutolol (hydrochloride)]
Cholesterol-free media + simvastatin (0.04 μM) [1, 3]: 1.195 | Complete Media [1, 4]: 1.105 | Difference [1, 8]: −0.09 | Difference [2, 9]: −0.56 | Cholesterol-free [2, 10]: 1.541 | Complete [2, 11]: 0.9763

C=C[C@H]1C[N@@]2CC[C@H]1C[C@@H]2[C@@H](O)c1ccnc2ccc(OC)cc12 [Quinidine]
Complete Media [1, 12]: 0.8492 | Difference [1, 8]: −0.29 | Complete [2, 13]: 1.951 | Difference [2, 14]: 0.93

O=C(O)c1cc(=O)c2ccccc2o1 [Chromocarb]
Cholesterol-free media + simvastatin (0.04 μM) [1, 15]: 1.932 | Complete Media [1, 12]: 1.471 | Difference [1, 8]: −0.46 | Cholesterol-free [2, 7]: 1.221 | Complete ([2]; NCI-H292 cells, complete media): 0.8012 | Difference [2, 16]: −0.42

CC[C@H]1OC(=O)[C@H](C)[C@@H](O[C@H]2C[C@@](C)(OC)[C@@H](O)[C@H](C)O2)[C@H](C)[C@@H](O[C@@H]2O[C@H](C)C[C@H](N(C)C)[C@H]2O)[C@](C)(O)C[C@@H](C)C(=O)[C@H](C)[C@H]2OC(=O)O[C@@]21C [Davercin]
Cholesterol-free media + simvastatin (0.04 μM) [1, 3]: 1.064 | Complete Media [1, 4]: 0.9657 | Difference [1, 17]: −0.10 | Cholesterol-free [2, 18]: 0.5403 | Complete [2, 13]: 0.9622 | Difference ([2]; complete vs cholesterol-free media, […]): 0.42

Oc1ccc(OCc2ccccc2)cc1 [Monobenzone]
Cholesterol-free media + simvastatin (0.04 μM) [1, 3]: 1.226 | Complete Media [1, 4]: 1.137 | Difference [1, 8]: −0.09 | Difference [2, 9]: −0.87 | Cholesterol-free [2, 10]: 1.95 | Complete [2, 11]: 1.077

OB1OCc2cc(F)ccc21 [Tavaborole]
Cholesterol-free media + simvastatin (0.04 μM) [1, 19]: 1.181 | Complete Media [1, 20]: 1.117 | Difference [1, 21]: −0.06 | Difference [2, 6]: −0.04 | Cholesterol-free [2, 18]: 1.018 | Complete [2, 13]: 0.9789

C[C@@H]1[C@H](O)[C@@H](C)/C=C/C=C/C=C/C=C/C=C/C=C/C=C/[C@H](O[C@@H]2O[C@H](C)[C@@H](O)[C@H](N)[C@@H]2O)C[C@@H]2O[C@](O)(C[C@@H](O)C[C@@H](O)[C@H](O)CC[C@@H](O)C[C@@H](O)CC(=O)O[C@H]1C)C[C@H](O)[C@H]2C(=O)O [Amphotericin B]
Cholesterol-free media + simvastatin (0.04 μM) [1, 22]: 1.212 | Complete Media ([1]; drug in complete media): 0.9521 | Difference [1, 8]: −0.26 | Difference [2, 6]: 0.05 | Cholesterol-free [2, 18]: 1.082 | Complete [2, 13]: 1.128

CCCCC/C=C\C/C=C\CCCCCCCC(=O)O [Linoleic acid]
Cholesterol-free media + simvastatin (0.04 μM) [1, 3]: 1.399 | Complete Media [1, 4]: 1.847 | Difference [1, 5]: 0.45 | Cholesterol-free [2, 18]: 1.134 | Complete [2, 13]: 1.557 | Difference [2, 14]: 0.42

CO[C@H]1C[C@@H]2CC[C@@H](C)[C@@](O)(O2)C(=O)C(=O)N2CCCC[C@H]2C(=O)O[C@H]([C@H](C)C[C@@H]2CC[C@@H](OCCO)[C@H](OC)C2)CC(=O)[C@H](C)/C=C(\C)[C@@H](O)[C@@H](OC)C(=O)[C@H](C)C[C@H](C)/C=C/C=C/C=C/1C [Everolimus]
Cholesterol-free media + simvastatin (0.04 μM) [1, 19]: 0.3946 | Complete Media [1, 20]: 0.373 | Difference [1, 21]: −0.02 | Difference [2, 6]: −0.23 | Cholesterol-free [2, 7]: 0.8236 | Complete ([2]; NCI-H292 cells, complete media): 0.5968

Nc1ccn(C[C@@H](CO)OCP(=O)(O)O)c(=O)n1 [Cidofovir]
Cholesterol-free media + simvastatin (0.04 μM) [1, 23]: 0.9844 | Complete Media [1, 24]: 1.01 | Difference [1, 5]: 0.03 | Cholesterol-free [2, 7]: 2.027 | Complete ([2]; NCI-H292 cells, complete media): 1.556 | Difference [2, 16]: −0.47

CCN(CC)CCNC(=O)c1ccc(N)cc1 [Procainamide (hydrochloride)]
Cholesterol-free media + simvastatin (0.04 μM) [1, 15]: 1.529 | Complete Media [1, 12]: 1.165 | Difference [1, 8]: −0.36 | Difference [2, 9]: −0.51 | Cholesterol-free [2, 10]: 1.397 | Complete [2, 11]: 0.8831

O=C1O[C@H](CO)[C@@H](O)[C@H](O)[C@H]1O [D-(+)-Glucono-1,5-lactone]
Cholesterol-free media + simvastatin (0.04 μM) [1, 3]: 1.196 | Complete Media [1, 4]: 1.644 | Difference [1, 5]: 0.45 | Cholesterol-free [2, 7]: 1.227 | Complete ([2]; NCI-H292 cells, complete media): 0.906 | Difference [2, 16]: −0.32

COc1cc2c(cc1OC)[C@@H]1Cc3ccc(OC)c(OC)c3CN1CC2 [Tetrahydropalmatine]
Cholesterol-free media + simvastatin (0.04 μM) [1, 22]: 0.9937 | Complete Media ([1]; drug in complete media): 0.7686 | Difference [1, 8]: −0.23 | Difference [2, 25]: −0.19 | Cholesterol-free [2, 26]: 1.084 | Complete [2, 27]: 0.8984

CCCCCCCCCCCCCCCC(=O)OC1CCCn2c1nc(C)c(CCN1CCC(c3noc4cc(F)ccc34)CC1)c2=O (stereo not shown) [Paliperidone palmitate]
Cholesterol-free media + simvastatin (0.04 μM) [1, 15]: 1.193 | Complete Media [1, 12]: 0.8268 | Difference [1, 8]: −0.37 | Difference [2, 25]: −0.16 | Cholesterol-free [2, 26]: 1.234 | Complete [2, 27]: 1.075

NC(=O)CCC(N)C(=O)O (racemic) [DL-Glutamine]
Cholesterol-free media + simvastatin (0.04 μM) [1, 15]: 0.9407 | Complete Media [1, 12]: 0.6307 | Difference [1, 8]: −0.31 | Difference [2, 25]: −0.07 | Cholesterol-free [2, 26]: 1.771 | Complete [2, 27]: 1.698

Cc1cn([C@H]2C[C@H](N=[N+]=[N-])[C@@H](CO)O2)c(=O)[nH]c1=O [Zidovudine]
Cholesterol-free media + simvastatin (0.04 μM) [1, 15]: 1.856 | Complete Media [1, 12]: 1.268 | Difference [1, 8]: −0.59 | Difference [2, 6]: −0.01 | Cholesterol-free [2, 18]: 1.211 | Complete [2, 13]: 1.205

O=C(C[S+]([O-])Cc1ccco1)NC/C=C\COc1cc(CN2CCCCC2)ccn1 (stereo not shown) [Lafutidine]
Cholesterol-free media + simvastatin (0.04 μM) [1, 23]: 1.203 | Complete Media [1, 24]: 1.221 | Difference [1, 5]: 0.02 | Difference [2, 6]: 0.01 | Cholesterol-free [2, 18]: 1.364 | Complete [2, 13]: 1.371

Hemin
Cholesterol-free media + simvastatin (0.04 μM) [1, 19]: 1.178 | Complete Media [1, 20]: 1.151 | Difference [1, 28]: −0.03 | Difference [2, 29]: −0.04 | Cholesterol-free [2, 18]: 0.9968 | Complete [2, 13]: 0.96

COc1ccc2c(c1O)-c1c(OC)c(OC)cc3c1[C@H](C2)N(C)CC3 [Isocorydine]
Cholesterol-free media + simvastatin (0.04 μM) [1, 19]: 1.273 | Complete Media [1, 20]: 1.214 | Difference [1, 28]: −0.06 | Difference [2, 29]: −0.17 | Cholesterol-free [2, 26]: 1.162 | Complete [2, 27]: 0.9961

Indacaterol (maleate)
Cholesterol-free media + simvastatin (0.04 μM) [1, 3]: 1.032 | Complete Media [1, 4]: 0.9157 | Difference [1, 17]: −0.12 | Difference [2, 29]: −0.20 | Cholesterol-free [2, 7]: 1.314 | Complete ([2]; NCI-H292 cells, complete media): 1.116

C[C@H]1COc2c(N3CCN(C)CC3)c(F)cc3c(=O)c(C(=O)O)cn1c23 [Levofloxacin]
Cholesterol-free media + simvastatin (0.04 μM) [1, 22]: 1.136 | Complete Media ([1]; drug in complete media): 0.944 | Difference [1, 8]: −0.19 | Difference [2, 6]: −0.23 | Cholesterol-free [2, 7]: 1.162 | Complete ([2]; NCI-H292 cells, complete media): 0.933
